In experiment [1] the test system is CDK4. Details: method as in AstraZeneca data repository. As to conditions: median log of IC50/EC50/Ki/Kd annotations, highest value; ref AstraZeneca data repository; cited from earlier work.
Experiment [2] concerns hiPSC-Hep. As to the kind of experiment: valid cell count (Hoechst nuclei) in hiPSC-Hep, multiplexed viability readout. The class given is cell-based. Particulars: Homo sapiens; for IC50: 10-point dose-response, multiplexed with lipid readout. As for the experimental part: To induce hepatic triglycerides (TAG) accumulation, before staining, cells were treated with 20 μL of 2× FA mixture, consisting of different proportions of oleic acid (OA-BSA, 25 µM, Sigma, #O3008), palmitic acid (PA-BSA, 200 µM, Agilent Technologies, #102720100) and thapsigargin (TG, 1 µM, Abcam, #120286) with a total volume of 40 μL/well. The TG/FA mixture was dispensed with BioTek^TM Microflo^TM select dispenser (#7170011, BioTek Instruments) and incubated for 18 h. Next, to label TAG accumulation stored into cytoplasmic lipid droplets, upon treatment, living cells were washed two times with warm Dulbecco’s Phosphate-Buffered Saline 1X (PBS, Corning, #21-031CV) with a handheld 384-channel electronic pipette device and then incubated for 15 min with a lipophilic dye, BODIPY 493/503 (8 ug/mL Life technologies, #D3922-green), in PBS at 37 °C. BODIPY (493/503) has become the standard dye utilized by scientists to study lipid droplets in live cells. After three washes with PBS cells were fixed with 4% paraformaldehyde methanol-free (PFA, Electron Microscopy Science, #15710) in PBS for 15 min at room temperature (RT). Cell health was monitored by Hoechst 33342 (10 ug/mL, Molecular Probe, #H21492) staining in PBS for nuclear count. After TAG staining the 384-assay plates were loaded in an automated confocal microscope with Opera High Content Imaging System (PerkinElmer, Waltham, MA, USA). Dyes were excited and images were captured on the Hoechst 3342 and Alexa Fluor 488 channels and signals were collected with a long pass filter 410 and 505 nm, for nuclei and TAG, respectively, at objective 20× air objective for HCA. To capture enough cells (>600) for the analysis, eight fields per well were imaged. Hoechst 33342 fluorescence was used to identify the nuclear region and cell counts. To assess intracellular fat deposits, BODIPY 493/503 fluorescence intensity was measured inside the cytoplasm region. […]

In experiment [3] the test system is CDK4 gene expression. Put plainly: RT-qPCR gene expression in TG/FA-treated hiPSC-Hep. As to conditions: 24 h pre-treatment then TG/FA 18 h, relative to TG/FA. The class given is cell-based, human. Here is the method:
(§1) To explore the signaling partners triggered or altered by the drugs, we performed gene expression RT-qPCR. The hiPSC-Hep were pre-treated in a 24-well plate with the three compounds shown in Figure 7 for 24 h followed by TG/FA challenge for an additional 18 h and RNA from each treatment well was isolated. The pre-treatment paradigm was chosen to stay consistent with how the original HTS was performed. We analyzed several target gene expression levels in the C/EBP-EP300 pathway including CDK2, CDK4, C/EBPα and C/EBPβ, EP300, and diacylglycerol acyltransferase 2 (DGAT2).
(§2) RNA was isolated from hiPSC-derived hepatocytes using the RNeasy kit (Qiagen, Frederick) and subsequently subjected to DNase digestion (Qiagen). Total RNA was quantified using NanoDrop 8000 (Thermo Scientific). The quality of total RNA was assessed by the Agilent Bioanalyzer Nano chip (Agilent Technologies) and RNA integrity number (RIN) ranged from 9.7 to 10. Reverse transcription was performed using the high capacity cDNA reverse transcription kit (Applied Biosystems, Foster City, CA, USA) according to the manufacturer’s recommendation and the complementary DNA (cDNA) obtained used for real-time quantitative PCR. The reaction mixture (10 μL), containing 1 μL of cDNA template, 0.5 μL each of primer and probe (20×, Thermo Fisher Scientific) mix for the gene of interest plus the reference gene and TaqMan Universal PCR master mix (Applied Biosystems) was added to the opaque white 384-well plates and amplified as follows: after 2 min of initial incubation at 50 °C and 10 min of initial denaturation at 95 °C, 45 cycles at 95 °C for 15 s, 60 °C for 1 min for annealing and 1 sec at 72 °C for final extension were performed. Assays were designed to have primers/probes to span exon–exon junctions (Table S1). Direct detection of PCR products was monitored by measuring the fluorescence produced by the result of TaqMan probe hydrolysis after every cycle. All experiments were carried out in triplicate in a LightCycler 480 thermocycler (Roche Diagnostic). Relative gene expression from qPCR data between groups of samples were assessed using a ∆∆Cq method. To adjust for variations in the cDNA synthesis each gene was normalized to that of hypoxanthine phosphoribosyl transferase 1 (HPRT1] or GAPDH mRNA.

The subject of experiment [4] is CDK2 gene expression. As to the kind of experiment: RT-qPCR gene expression in TG/FA-treated hiPSC-Hep. The class given is cell-based, human. As to conditions: 24 h pre-treatment then TG/FA 18 h; relative to TG/FA. As for the experimental part:
as §1, §2
For orientation: In qPCR the cycle at which signal appears reflects the starting amount.

Experiment [5] relates to C/EBPα mRNA expression. Put plainly: RT-qPCR gene expression in TG/FA-treated hiPSC-Hep. The class given is cell-based, human. Particulars: 24 h pre-treatment then TG/FA 18 h. As for the experimental part: as §1, §2
The test system of experiment [6] is EP300 gene expression. As to the kind of experiment: RT-qPCR gene expression in TG/FA-treated hiPSC-Hep. The class given is cell-based, human. As to conditions: 24 h pre-treatment then TG/FA 18 h; relative to TG/FA. As for the experimental part: as §1, §2

This is an account of results in article PMC7765409 (International Journal of Molecular Sciences, 2020).

One may read the IC50 as the concentration that gives 50% inhibition. Low readings indicate higher potency, high ones lower potency. The EC50 is the concentration that produces a half-maximal response.

Molecules are shown by their SMILES. Where only a bound is given, the exact number is not on record here.

In the case of `Cc1ncc(-c2nc(Nc3ccc(N4CCN(C(=O)CO)CC4)cc3)ncc2F)n1C(C)C` [C3], in experiment [1], the “pXC50 CDK4” value is listed as 7.33. In experiment [2], this compound yielded an IC50 greater than 30 µM. Moreover, the “effect on CDK4 mRNA level” value in experiment [3] was “no effect”. The “effect on CDK2 gene expression” value in experiment [4] is reported as “no effect”. In experiment [5] (relative to TG/FA), the “effect on C/EBPα mRNA level” value is recorded as “no effect”. The “effect on EP300 gene expression” value in experiment [6] is recorded as “no effect”.

`CNC(=O)c1nn(C)c2c1C(C)(C)Cc1cnc(Nc3ccc(N4CCN(C)CC4)cc3)nc1-2` [C16, Milciclib]: in experiment [1], the “pXC50 CDK4” value is given as 7.16. In experiment [2], this compound gave an IC50 of 16.6 µM. Besides, the EC50 in experiment [2] (Figure S5 dose-response, read-out: EC50, viable cell count (red line)) stood at 16.6 µM. Moreover, in experiment [3] (5 µM), the “CDK4 gene expression suppressed to” value was roughly 34%. For the same compound, the “effect on CDK2 gene expression” value in experiment [4] is given as “overall increase”. For the same compound, in experiment [5] (5 µM), the “C/EBPα mRNA expression suppressed by” value is listed as 47%. For the same compound, the “effect on EP300 gene expression” value in experiment [6] is “not significantly affected”.
